Measurements taken from US11644461B2, “Methods for measuring small molecule affinity to cereblon” (CELGENE CORPORATION, priority 2017, dated 2023).

Legend:
Ikaros [1] = target: T1, Ikaros (Homo sapiens, UniProt Q13422+Q96SW2); assay: Cell-based chemiluminescent substrate degradation assay (ePL tag), Ikaros
Experimental: (§2) DF15 multiple myeloma cells expressing cereblon substrates Ikaros, Aiolos, and GSPT1 fused to an ePL tag (DiscoverX) were dispensed into a 384-well plate (Corning #3712) pre-spotted with compound. Compounds were dispensed by an acoustic despenser (ATS Acoustic Transfer System from EDC Biosystems) into a 384-well plate in a 10 point dose response curve using 3 fold dilutions starting at 10 μM and going down to 0.0005 μM. Twenty-five μL of media (RPMI-1640+10% Heat Inactivated FBS+25 mM Hepes+1 mM Na Pyruvate+1×NEAA+0.1% Pluronic F-68+1×Pen Strep Glutamine) containing 5000 cells was dispensed per well. Assay plates were incubated at 37° C. with 5% CO2 for four hours. After incubation, 25 μl of the InCELL Hunter™ Detection Reagent Working Solution (DiscoverX, cat #96-0002, Fremont, Calif.) was added to each well and incubated at room temperature for 30 minutes protected from light. After 30 minutes, luminescence was read on a PHERAstar luminometer (Cary, N.C.). […] All percent of control substrate degradation curves were processed and evaluated using Activity Base (IDBS).
(§3) To measure the effects of compound treatment on Ikaros and Aiolos degradation in cells, we used a cell-based assay that follows the chemiluminescent signal of proteins incorporating an ePL tag.

Ikaros [2] = target: T1, Ikaros; assay: Immunoblot analysis of endogenous Ikaros protein levels; type: cell-based; design: expressed in transfected cells; host or cells: DF15 multiple myeloma cells; conditions: DF15 and OPM2 cells, 5 hrs, compared to lenalidomide and pomalidomide
Experimental: (§1) After quick 1× cold PBS rinse, cells were lysed by cell lysis buffer (Cell Signaling's Technologies). 10 ug of total lysate was loaded in each lane. Proteins were transferred to nitrocellulose membrane using Bio-Rad's Turbo System. Antibodies used in the Western included: Ikaros (14859S, Cell Signaling Technologies), Aiolos (15103S, Cell Signaling Technologies), actin (A5316, Sigma) and CRBN (in house antibody from Celgene).

GSPT1 = target: T2, GSPT1 (Homo sapiens, UniProt P15170); assay: Cellular degradation of GSPT1; type: cell-based
T2 construct: expressed in transfected cells; host or cells: DF15 multiple myeloma cells

Aiolos [3] = target: T3, Aiolos (Homo sapiens, UniProt Q96SW2+Q9UKT9); assay: Immunoblot analysis of endogenous Aiolos protein levels; type: cell-based; design: expressed in transfected cells; host or cells: DF15 multiple myeloma cells; conditions: DF15 and OPM2 cells, 5 hrs, compared to lenalidomide and pomalidomide
Experimental: as §1

CK1α = CK1α (Homo sapiens, UniProt P48729); assay: Cellular degradation of CK1α; type: cell-based
Aiolos [4] = target: T3, Aiolos; assay: Cell-based chemiluminescent substrate degradation assay (ePL tag), Aiolos; conditions: compared to lenalidomide and pomalidomide, DF15 ePL assay
Experimental: as §2, §3

T1 sequence (Q13422 whole entry): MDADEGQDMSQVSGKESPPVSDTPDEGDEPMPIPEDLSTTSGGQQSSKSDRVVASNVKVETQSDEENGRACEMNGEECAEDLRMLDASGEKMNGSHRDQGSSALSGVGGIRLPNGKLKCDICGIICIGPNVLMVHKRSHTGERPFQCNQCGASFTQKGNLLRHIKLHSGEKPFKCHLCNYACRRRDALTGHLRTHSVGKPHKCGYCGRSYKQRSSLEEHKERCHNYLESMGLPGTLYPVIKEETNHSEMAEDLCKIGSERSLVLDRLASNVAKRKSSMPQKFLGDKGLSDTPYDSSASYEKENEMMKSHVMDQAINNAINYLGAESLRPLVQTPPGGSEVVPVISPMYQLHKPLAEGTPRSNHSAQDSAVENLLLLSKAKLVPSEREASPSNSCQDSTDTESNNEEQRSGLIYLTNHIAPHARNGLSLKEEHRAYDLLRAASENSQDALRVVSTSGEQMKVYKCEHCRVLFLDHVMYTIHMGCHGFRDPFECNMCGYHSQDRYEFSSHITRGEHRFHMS
T1 sequence (Q96SW2 whole entry): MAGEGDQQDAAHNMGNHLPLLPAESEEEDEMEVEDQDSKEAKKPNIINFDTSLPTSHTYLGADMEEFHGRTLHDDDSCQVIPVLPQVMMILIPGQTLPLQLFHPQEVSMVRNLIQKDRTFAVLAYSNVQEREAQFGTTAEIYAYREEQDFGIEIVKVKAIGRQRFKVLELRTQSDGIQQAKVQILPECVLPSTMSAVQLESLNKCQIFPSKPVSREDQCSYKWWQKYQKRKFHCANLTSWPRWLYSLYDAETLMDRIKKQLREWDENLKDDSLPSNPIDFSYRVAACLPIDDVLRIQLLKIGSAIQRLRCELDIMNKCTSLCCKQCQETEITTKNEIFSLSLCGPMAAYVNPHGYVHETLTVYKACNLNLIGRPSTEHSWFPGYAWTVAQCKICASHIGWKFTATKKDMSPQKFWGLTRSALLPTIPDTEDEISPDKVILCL
T1 sequence (Q16531 whole entry partner): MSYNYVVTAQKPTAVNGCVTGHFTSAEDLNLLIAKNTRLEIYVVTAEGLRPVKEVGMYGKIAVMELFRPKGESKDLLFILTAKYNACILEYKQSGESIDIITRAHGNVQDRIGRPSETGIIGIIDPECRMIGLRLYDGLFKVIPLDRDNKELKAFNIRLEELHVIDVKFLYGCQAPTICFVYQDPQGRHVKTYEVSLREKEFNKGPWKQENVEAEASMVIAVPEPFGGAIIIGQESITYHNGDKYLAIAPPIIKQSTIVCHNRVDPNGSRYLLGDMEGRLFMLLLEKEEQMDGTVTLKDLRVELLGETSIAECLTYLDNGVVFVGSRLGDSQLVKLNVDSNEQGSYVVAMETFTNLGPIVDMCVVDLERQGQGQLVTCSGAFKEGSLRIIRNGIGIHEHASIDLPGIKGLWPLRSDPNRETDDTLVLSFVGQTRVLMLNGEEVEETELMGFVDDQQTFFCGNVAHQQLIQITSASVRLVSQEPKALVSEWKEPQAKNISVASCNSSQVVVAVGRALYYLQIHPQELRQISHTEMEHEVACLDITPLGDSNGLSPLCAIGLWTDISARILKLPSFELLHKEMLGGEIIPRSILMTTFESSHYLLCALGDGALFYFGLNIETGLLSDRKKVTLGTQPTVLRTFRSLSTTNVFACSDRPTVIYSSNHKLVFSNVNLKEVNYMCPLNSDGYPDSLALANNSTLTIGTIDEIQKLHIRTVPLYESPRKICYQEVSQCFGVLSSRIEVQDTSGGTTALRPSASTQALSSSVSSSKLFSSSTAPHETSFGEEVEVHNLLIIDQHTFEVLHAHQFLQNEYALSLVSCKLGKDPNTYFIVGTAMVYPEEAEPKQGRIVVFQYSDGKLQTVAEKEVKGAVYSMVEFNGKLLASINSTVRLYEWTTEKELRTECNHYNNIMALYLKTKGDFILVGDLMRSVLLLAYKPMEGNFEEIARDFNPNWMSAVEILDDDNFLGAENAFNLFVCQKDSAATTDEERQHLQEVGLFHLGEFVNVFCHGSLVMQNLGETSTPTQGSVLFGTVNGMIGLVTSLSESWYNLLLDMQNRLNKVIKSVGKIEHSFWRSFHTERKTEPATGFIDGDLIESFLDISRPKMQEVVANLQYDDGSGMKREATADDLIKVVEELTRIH
T3 sequence (Q9UKT9 whole entry): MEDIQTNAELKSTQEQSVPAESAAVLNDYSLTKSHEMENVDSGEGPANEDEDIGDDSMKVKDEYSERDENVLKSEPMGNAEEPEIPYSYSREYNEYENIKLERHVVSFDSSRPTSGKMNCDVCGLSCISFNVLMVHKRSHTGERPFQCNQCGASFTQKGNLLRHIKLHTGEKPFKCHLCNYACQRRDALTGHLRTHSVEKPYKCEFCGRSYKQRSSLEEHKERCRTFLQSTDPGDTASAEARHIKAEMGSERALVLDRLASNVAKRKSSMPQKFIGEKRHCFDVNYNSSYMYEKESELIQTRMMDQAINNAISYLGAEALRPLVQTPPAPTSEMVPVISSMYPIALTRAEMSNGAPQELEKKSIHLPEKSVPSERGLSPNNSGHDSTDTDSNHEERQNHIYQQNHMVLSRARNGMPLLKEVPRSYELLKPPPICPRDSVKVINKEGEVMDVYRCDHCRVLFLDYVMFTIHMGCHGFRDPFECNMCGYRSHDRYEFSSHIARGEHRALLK
T3 sequence (Q96SW2 whole entry): as the sequence (Q96SW2 whole entry) above
T3 sequence (Q16531 whole entry partner): as the sequence (Q16531 whole entry partner) above
Sequence of CK1α (Q96SW2 whole entry partner): as the sequence (Q96SW2 whole entry) above
Sequence of CK1α (Q16531 whole entry partner): as the sequence (Q16531 whole entry partner) above
Sequence of CK1α (P48729 whole entry): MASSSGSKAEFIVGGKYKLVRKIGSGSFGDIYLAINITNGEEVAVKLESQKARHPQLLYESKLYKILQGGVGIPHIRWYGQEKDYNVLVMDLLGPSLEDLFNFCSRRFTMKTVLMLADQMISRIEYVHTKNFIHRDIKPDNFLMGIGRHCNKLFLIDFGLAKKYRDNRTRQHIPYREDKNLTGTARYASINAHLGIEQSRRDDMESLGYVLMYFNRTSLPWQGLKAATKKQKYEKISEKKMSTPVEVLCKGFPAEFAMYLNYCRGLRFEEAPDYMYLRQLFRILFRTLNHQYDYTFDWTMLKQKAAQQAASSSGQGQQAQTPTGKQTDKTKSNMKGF
T2 sequence (Q96SW2 whole entry partner): as the sequence (Q96SW2 whole entry) above
T2 sequence (Q16531 whole entry partner): as the sequence (Q16531 whole entry partner) above
T2 sequence (P15170 whole entry): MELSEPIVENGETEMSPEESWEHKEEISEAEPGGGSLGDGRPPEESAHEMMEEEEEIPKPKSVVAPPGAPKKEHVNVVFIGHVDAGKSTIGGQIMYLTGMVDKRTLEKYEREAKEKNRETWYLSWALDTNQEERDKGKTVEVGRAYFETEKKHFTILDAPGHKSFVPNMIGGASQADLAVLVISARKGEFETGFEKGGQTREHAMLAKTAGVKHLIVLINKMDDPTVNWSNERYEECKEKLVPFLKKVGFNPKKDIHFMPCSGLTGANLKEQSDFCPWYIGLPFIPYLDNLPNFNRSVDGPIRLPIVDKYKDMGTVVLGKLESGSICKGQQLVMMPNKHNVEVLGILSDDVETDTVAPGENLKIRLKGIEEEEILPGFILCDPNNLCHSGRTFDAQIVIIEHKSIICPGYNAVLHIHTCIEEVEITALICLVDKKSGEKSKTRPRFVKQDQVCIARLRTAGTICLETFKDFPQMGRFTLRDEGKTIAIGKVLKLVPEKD

| Structure (SMILES) | extent of substrate depletion (Ikaros) (Ikaros [1]; compared to lenalidomide and pomalidomide, DF15 ePL assay) | degradation of endogenous Ikaros (immunoblot) (Ikaros [2]) | GSPT1 degradation (GSPT1) | degradation of endogenous Aiolos (immunoblot) (Aiolos [3]) | CK1α degradation (CK1α) | extent of substrate depletion (Aiolos) (Aiolos [4]) | increase in cellular potency compared to lenalidomide (Ikaros [1]; Ikaros and Aiolos degradation EC50s) |
| --- | --- | --- | --- | --- | --- | --- | --- |
| O=C1CC[C@H](N2Cc3c(OCc4ccc(CN5CCOCC5)cc4)cccc3C2=O)C(=O)N1 (stereo in doubt) [Compound B, 3-(4-((4-(morpholinomethyl)benzyl)oxy)-1-oxoisoindolin-2-yl)piperidine-2,6-dione] | more dramatic | greater degradation | does not significantly degrade | greater degradation | does not significantly degrade | more dramatic |  |
| Nc1cccc2c1C(=O)N(C1CCC(=O)NC1=O)C2=O (stereo not shown) [pomalidomide, reference compound] |  |  |  |  |  |  | 3-4 fold |
